Target: Dual specificity mitogen-activated protein kinase kinase 1 (Homo sapiens) (UniProt Q02750)
Assay: Inhibition of human MEK1 activity at 10 uM by radiometric assay

Dual specificity mitogen-activated protein kinase kinase 1 (Homo sapiens), sequence (Q02750 whole entry): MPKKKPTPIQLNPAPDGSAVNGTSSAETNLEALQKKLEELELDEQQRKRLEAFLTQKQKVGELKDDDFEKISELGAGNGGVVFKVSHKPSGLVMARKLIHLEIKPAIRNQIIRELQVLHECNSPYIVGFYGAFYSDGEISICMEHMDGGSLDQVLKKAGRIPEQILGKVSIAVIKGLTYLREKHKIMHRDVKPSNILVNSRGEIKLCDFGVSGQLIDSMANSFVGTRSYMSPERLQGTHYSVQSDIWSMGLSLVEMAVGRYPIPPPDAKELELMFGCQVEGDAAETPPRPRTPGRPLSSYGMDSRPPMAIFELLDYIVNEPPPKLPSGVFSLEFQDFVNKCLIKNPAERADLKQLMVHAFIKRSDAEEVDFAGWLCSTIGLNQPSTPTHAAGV

An inhibition of 9% was found for `NC(=O)c1cccc(-c2cc(Nc3ccc(OC(F)(F)F)cc3)ncn2)c1` in this work.

From ChEMBL document CHEMBL1240306, “Allosteric inhibitors of Bcr-abl-dependent cell proliferation” (Nat Chem Biol, 2006)
